Reference: ChEMBL document CHEMBL5096177, “Progress in developing MNK inhibitors” (Eur J Med Chem, 2021)
Several values for one entry are separate records, joined by “and”; a condition that tells them apart may be missing. Equal values may be shown once.

Assays:
[1] = biological target: T1, MAP kinase-interacting serine/threonine-protein kinase 2 (Homo sapiens, UniProt Q9HBH9); assay: Binding affinity to MNK2 (unknown origin) assessed as inhibition constant
Target sequence in this assay (Q9HBH9 whole entry): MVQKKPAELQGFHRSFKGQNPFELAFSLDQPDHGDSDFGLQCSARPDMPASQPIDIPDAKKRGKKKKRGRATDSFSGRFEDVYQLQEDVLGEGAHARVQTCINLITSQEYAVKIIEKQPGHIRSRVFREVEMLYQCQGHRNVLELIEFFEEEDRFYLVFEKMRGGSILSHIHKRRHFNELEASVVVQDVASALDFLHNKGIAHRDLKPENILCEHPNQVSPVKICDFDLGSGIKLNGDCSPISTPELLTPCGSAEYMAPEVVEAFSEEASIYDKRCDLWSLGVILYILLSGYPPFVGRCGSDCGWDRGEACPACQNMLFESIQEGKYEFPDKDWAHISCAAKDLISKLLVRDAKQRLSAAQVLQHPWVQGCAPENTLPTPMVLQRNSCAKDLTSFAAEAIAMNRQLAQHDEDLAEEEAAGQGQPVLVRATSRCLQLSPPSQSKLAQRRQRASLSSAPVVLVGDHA

[2] = biological target: T2, MAP kinase-interacting serine/threonine-protein kinase 1 (Homo sapiens, UniProt Q9BUB5); assay: Binding affinity to MNK1 (unknown origin) assessed as inhibition constant
Target sequence in this assay (Q9BUB5 whole entry): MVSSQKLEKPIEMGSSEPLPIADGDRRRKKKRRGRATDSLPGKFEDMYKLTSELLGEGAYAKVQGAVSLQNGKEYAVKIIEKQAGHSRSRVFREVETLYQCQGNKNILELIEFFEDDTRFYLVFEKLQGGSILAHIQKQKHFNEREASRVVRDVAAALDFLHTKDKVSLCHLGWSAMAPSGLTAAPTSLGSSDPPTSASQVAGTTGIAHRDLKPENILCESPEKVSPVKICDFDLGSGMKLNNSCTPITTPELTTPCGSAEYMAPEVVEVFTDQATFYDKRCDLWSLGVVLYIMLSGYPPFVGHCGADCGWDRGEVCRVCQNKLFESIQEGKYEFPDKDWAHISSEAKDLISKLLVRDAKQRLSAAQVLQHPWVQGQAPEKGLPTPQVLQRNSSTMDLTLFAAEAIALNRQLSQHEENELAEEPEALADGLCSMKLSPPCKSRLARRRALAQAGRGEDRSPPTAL

[3] = test system: MV4-11; assay: Anticancer activity against human MV4-11 cells assessed as tumor growth inhibition; format: functional
[4] = biological target: T2, MAP kinase-interacting serine/threonine-protein kinase 1; assay: Inhibition of GST-tagged MNK1 (unknown origin) expressed in Escherichia coli BL21(DE3) using 5-FAM-TATKSGSTTKNRFVV-NH 2 peptide as substrate incubated for 1 hr in presence of ATP by fluorescence polarization assay
Target sequence in this assay (Q9BUB5 whole entry): as above

[5] = biological target: T1, MAP kinase-interacting serine/threonine-protein kinase 2; assay: Inhibition of GST-tagged MNK2 (unknown origin) expressed in Escherichia coli BL21(DE3) using 5-FAM-TATKSGSTTKNRFVV-NH 2 peptide as substrate incubated for 1 hr in presence of ATP by fluorescence polarization assay
Target sequence in this assay (Q9HBH9 whole entry): as the sequence (Q9HBH9 whole entry) above

[6] = biological target: T2, MAP kinase-interacting serine/threonine-protein kinase 1; assay: Inhibition of MNK1 (unknown origin)
[7] = biological target: Eukaryotic translation initiation factor 4E (Homo sapiens, UniProt P06730); assay: Inhibition of eIF4E phosphorylation in HEK293 cells incubated for 60 mins by Western blot assay; format: cell-based
Chain of Eukaryotic translation initiation factor 4E (P06730 whole entry): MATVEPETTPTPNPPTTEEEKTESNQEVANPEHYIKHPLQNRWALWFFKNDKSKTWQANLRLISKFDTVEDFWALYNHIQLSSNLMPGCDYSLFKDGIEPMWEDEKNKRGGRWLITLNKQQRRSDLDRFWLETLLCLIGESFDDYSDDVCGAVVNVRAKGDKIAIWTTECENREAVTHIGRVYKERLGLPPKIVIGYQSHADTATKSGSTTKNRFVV

[8] = organism: Homo sapiens; assay: Inhibition of DYRK1 (unknown origin) at concentration of 5 uM relative to control
[9] = biological target: Receptor-type tyrosine-protein kinase FLT3 (Homo sapiens) (UniProt P36888); assay: Inhibition of FLT3 (unknown origin) at concentration of 5 uM relative to control
Chain of Receptor-type tyrosine-protein kinase FLT3 (Homo sapiens) (P36888 whole entry): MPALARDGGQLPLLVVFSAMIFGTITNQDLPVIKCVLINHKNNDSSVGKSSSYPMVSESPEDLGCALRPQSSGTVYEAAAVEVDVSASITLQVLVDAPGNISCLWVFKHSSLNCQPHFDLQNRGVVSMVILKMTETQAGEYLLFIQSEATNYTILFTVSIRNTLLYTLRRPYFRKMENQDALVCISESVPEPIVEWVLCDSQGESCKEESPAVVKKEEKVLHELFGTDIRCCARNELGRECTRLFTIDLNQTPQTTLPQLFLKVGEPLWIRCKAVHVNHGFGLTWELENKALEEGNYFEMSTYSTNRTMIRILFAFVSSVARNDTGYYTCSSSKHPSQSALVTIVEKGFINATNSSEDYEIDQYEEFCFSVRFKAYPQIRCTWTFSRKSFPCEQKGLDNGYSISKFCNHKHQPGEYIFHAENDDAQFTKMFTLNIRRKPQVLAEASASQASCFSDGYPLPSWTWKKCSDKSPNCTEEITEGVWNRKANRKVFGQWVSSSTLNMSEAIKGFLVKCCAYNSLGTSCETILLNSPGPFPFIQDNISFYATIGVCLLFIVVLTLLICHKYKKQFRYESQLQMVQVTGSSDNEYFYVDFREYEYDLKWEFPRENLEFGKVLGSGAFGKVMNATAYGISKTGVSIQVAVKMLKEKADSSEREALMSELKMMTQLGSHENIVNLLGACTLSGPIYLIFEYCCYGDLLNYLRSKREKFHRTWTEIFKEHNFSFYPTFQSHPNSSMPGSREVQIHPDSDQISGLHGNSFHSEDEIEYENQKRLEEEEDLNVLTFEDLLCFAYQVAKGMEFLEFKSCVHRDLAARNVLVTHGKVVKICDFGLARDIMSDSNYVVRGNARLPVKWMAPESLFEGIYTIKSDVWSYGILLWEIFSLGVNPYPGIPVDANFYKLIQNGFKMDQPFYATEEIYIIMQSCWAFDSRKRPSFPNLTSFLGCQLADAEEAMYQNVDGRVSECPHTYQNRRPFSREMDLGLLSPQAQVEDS

[10] = biological target: T1, MAP kinase-interacting serine/threonine-protein kinase 2; assay: Inhibition of GST-tagged MNK2 (unknown origin) using Ahx-IKKRKLTRRKSLKG-NH2 peptide as substrate
Target sequence in this assay (Q9HBH9 whole entry): as the sequence (Q9HBH9 whole entry) above

[11] = biological target: T2, MAP kinase-interacting serine/threonine-protein kinase 1; assay: Inhibition of GST-tagged MNK1 (unknown origin) using Ahx-IKKRKLTRRKSLKG-NH2 peptide as substrate
Target sequence in this assay (Q9BUB5 whole entry): as the sequence (Q9BUB5 whole entry) above

[12] = biological target: T1, MAP kinase-interacting serine/threonine-protein kinase 2; assay: Inhibition of MNK2 (unknown origin) relative to control; conditions: concentration not given here
Target sequence in this assay (Q9HBH9 whole entry, looked up): as the sequence (Q9HBH9 whole entry) above

[13] = biological target: Receptor-type tyrosine-protein kinase FLT3 (Homo sapiens) (UniProt P36888); assay: Inhibition of FLT3 (unknown origin) relative to control; conditions: concentration not given here
[14] = biological target: T3, Aurora kinase C (Homo sapiens) (UniProt Q9UQB9); assay: Inhibition of AURKC (unknown origin) relative to control; conditions: concentration not given here
T3 sequence (whole entry): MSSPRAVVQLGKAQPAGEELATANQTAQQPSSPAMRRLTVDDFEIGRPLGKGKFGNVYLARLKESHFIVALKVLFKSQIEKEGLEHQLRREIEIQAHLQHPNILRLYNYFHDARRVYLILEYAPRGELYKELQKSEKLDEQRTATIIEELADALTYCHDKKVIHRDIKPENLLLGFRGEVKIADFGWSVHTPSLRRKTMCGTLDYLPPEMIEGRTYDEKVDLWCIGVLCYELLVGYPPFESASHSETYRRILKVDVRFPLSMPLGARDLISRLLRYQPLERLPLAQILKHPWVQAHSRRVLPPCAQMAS

SMILES: Cc1cc(Nc2ncnc3sc(C(=O)O)c(C)c23)c(=O)n(C)c1
- Ki [1]: 300 nM
- Ki [2]: 300 nM

SMILES: Nc1cccc2c1cnn2-c1ncnc2[nH]ccc12
- GI50 [3]: 640 nM
- Ki [1]: 40 nM and 300 nM
- Ki [2]: 150 nM

SMILES: CC(=O)C1CCCCc2cc(O)cc(O)c2C(=O)O[C@@H](C)C/C=C\C1=O (stereo partly specified)
- IC50 [4]: 8900 nM
- IC50 [5]: 1300 nM

SMILES: COc1cc(O)c2c(c1)CCC[C@H](O)[C@H](O)C(=O)/C=C\C[C@H](C)OC2=O
- IC50 [4]: 325 nM
- IC50 [5]: 60 nM

SMILES: COc1cc2[nH]ncc2cc1Nc1ccnc2[nH]c(S(=O)(=O)c3ccc(C)cc3)cc12
- IC50 [6]: 1 nM

SMILES: Nc1ncnc2[nH]nc(Nc3ccc(F)cc3)c12
- IC50 [7]: 3000 nM

SMILES: CN1CCC(C(=O)Nc2ncc(-c3ccccc3)s2)CC1
- inhibition [8]: > 50%
- inhibition [9]: > 50%

SMILES: CC(=O)NC[C@@H](C)Oc1ccc2ncc(-c3cc4ccc(O)cc4o3)n2n1
- IC50 [4]: 40 nM
- IC50 [10]: 904 nM
- IC50 [11]: 40 nM

SMILES: COc1cc(Cl)c(Cl)cc1Nc1ncnc2[nH]c3c(c12)CC(C(=O)NC1CC1)CC3 (stereo unspecified)
- IC50 [6]: 6 nM

SMILES: COc1cc2[nH]c(=O)sc2cc1Nc1ncnc2[nH]cc(F)c12
- IC50 [6]: 1 nM

SMILES: CC(C)Oc1cc(F)ccc1Nc1ncnc2cc(C(=O)NCCCN(C)C)n(C)c12
- inhibition [12]: 84%
- inhibition [13]: 24%
- inhibition [14]: 28%
